Reference: US20060223814A1, “Nk-2 antagonist basic linear compounds and formulations containing them” (priority 2003, published 2006)

biological target: T1, human NK-2 receptor (Homo sapiens, UniProt P21452); experiment: Binding test on membranes of CHO cells transfected with the human ileum NK-2 receptor, radioligand NKA in competition; settings: CHO cell membranes; radioligand NKA 100 pM; incubation 30 min., 20° C.
T1 construct: expressed in transfected cells; host or cells: Chinese hamster ovary (CHO) cells, membranes
T1 sequence (P21452 1-398): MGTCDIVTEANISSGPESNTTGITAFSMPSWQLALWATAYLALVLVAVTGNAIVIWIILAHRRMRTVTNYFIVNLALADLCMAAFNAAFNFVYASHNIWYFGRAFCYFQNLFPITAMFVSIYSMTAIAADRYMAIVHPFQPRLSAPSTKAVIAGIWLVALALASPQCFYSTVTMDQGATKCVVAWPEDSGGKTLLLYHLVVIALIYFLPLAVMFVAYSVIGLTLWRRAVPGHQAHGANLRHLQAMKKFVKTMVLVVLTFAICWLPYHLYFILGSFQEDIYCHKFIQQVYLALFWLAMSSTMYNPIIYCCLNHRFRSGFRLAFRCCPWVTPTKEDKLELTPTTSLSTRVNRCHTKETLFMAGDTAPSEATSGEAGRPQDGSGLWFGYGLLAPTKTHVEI
Description: Assessment of the antagonist activity on NK-2 receptors was performed with binding and functional tests according to prior descriptions in the literature for NK-2 antagonists.
In particular, affinity of the compounds for the human NK-2 receptor was assessed in a binding test using membranes of Chinese hamster ovary (CHO) cells, transfected with the NK-2 receptor of human ileum and the radioligand ['251]NKA (Amersham, aspecific activity 2000 Ci/mmol) at a concentration of 100 pM in competition studies. The substances under examination were tested in a concentration range from 0.01 nM to 10 mM. At the end of incubation (30 min., 20° C.) the samples were filtered and the radioactivity was determined using a gamma-counter.
The data in table 1 were obtained for some compounds of general formula (I) and concern the values of affinity to the human NK-2 receptor: […]

Row | Molecule | pKi (affinity to the human NK-2 receptor)
1 | (S) 6-Methyl-benzo[b]thiophene-2-carboxylic acid (1-{1-benzyl-4-[4-(2-hydroxy-ethyl)-piperidin-1-yl]-4-oxo-butylcarbamoyl)-cyclopentyl)-amide [Example 53] | 8.7

same assay, conditions: CHO cell membranes; radioligand NKA 100 pM; incubation 30 min., 20° C.; read-out: pKi (affinity to the human NK-2 receptor) (converted)

Row | Molecule | Ki [nM]
2 | Cc1ccc2cc(C(=O)NC3(C(=O)N[C@@H](CCC(=O)N4CCN(C5CCOCC5)CC4)Cc4ccccc4)CCCC3)sc2c1 [Example 52, (S) 6-Methyl-benzo[b]thiophene-2-carboxylic acid (1-{1-benzyl-4-oxo-4-[4-(tetrahydro-pyran-4-yl)-piperazin-1-yl]-butylcarbamoyl}-cyclopentyl)amide] | 0.0794
3 | Cc1ccc2cc(C(=O)NC3(C(=O)N[C@@H](CCCN4CCN(C(=O)C5CCOCC5)CC4)Cc4ccccc4)CCCC3)sc2c1 [Example 55, (S) 6-Methyl-benzo[b]thiophene-2-carboxylic acid (1-{1-benzyl-4-[4-(tetrahydro-pyran-4-carbonyl)-piperazin-1-yl]-butylcarbamoyl}-cyclopentyl)-amide] | 0.1
4 | Cc1ccc2cc(C(=O)NC3(C(=O)N[C@@H](CCCN4CCN(CC5CCOCC5)CC4)Cc4ccccc4)CCCC3)sc2c1 [Example 54, (S) 6-Methyl-benzo[b]thiophene-2-carboxylic acid (1-{1-benzyl-4-[4-(tetrahydro-pyran-4-ylmethyl)-piperazin-1-yl]-butylcarbamoyl}-cyclopentyl)-amide] | 0.0501
5 | Cc1ccc2cc(C(=O)NC3(C(=O)N[C@@H](COCCC4CCN(CC5CCOCC5)CC4)Cc4ccccc4)CCCC3)sc2c1 [Example 62] | 0.501
6 | O=C(NC1(C(=O)N[C@@H](CCCN2CCC(Cc3ccccc3)CC2)Cc2ccccc2)CCCC1)c1cc2ccccc2s1 [Example 50, (S) Benzo[b]thiophene-2-carboxylic acid {1-[1-benzyl-4-(4-benzyl-piperidin-1-yl)-butylcarbamoyl]-cyclopentyl}-amide] | 0.126
7 | Cc1ccc2cc(C(=O)NC3(C(=O)N[C@@H](CCC(=O)N4CCN(CC5CCOCC5)CC4)Cc4ccccc4)CCCC3)sc2c1 [Example 51] | 0.0794
8 | Cc1ccc2cc(C(=O)NC3(C(=O)N[C@@H](CCCC4CCN(CC5CCOCC5)CC4)Cc4ccccc4)CCCC3)sc2c1 [Example 58, (S) 6-Methyl-benzo[b]thiophene-2-carboxylic acid (1-{1-benzyl-4-[1-(tetrahydro-pyran-4-ylmethyl)-piperidin-4-yl]-butylcarbamoyl}-cyclopentyl)-amide] | 0.126
9 | CN(C)CCCNC(=O)C=C[C@@H](Cc1ccccc1)NC(=O)C1(NC(=O)c2cc3ccccc3s2)CCCC1 [Example 46, (R) Benzo[b]thiophene-2-carboxylic acid {1-[1-benzyl-3-(3-dimethylamino-propylcarbamoyl)-allylcarbamoyl]-cyclopentyl)-amide] | 0.631
